Results as given in article PMC7343282, “Tissue Distribution of Several Series of Cationic Surfactants in Rainbow Trout (Oncorhynchus mykiss) Following Exposure via Water” (Environmental Science & Technology, 2020).
Where two headings read alike, the source gives them in different places.

Legend:
[1] = system: rainbow trout (Oncorhynchus mykiss); assay: Contribution of tissues to fish body burden; type: in vivo; settings: for % contribution to body burden, Gills / % contribution to body burden, Liver / % contribution to body burden, Mucus / % contribution to body burden, Muscle / % contribution to body burden, Skin / Share of body burden present in gills and mucus / Share of body burden in interior tissues (blood, liver, and muscle): in vivo; for Contribution of Other tissue (all apart from blood, liver, gills and skin; muscle concentration assumed) to body burden: fraction
Text: To calculate the quantity of the test chemical in the different tissues, the amount of each tissue in the fish was estimated and multiplied by the concentration in that tissue. The test chemical quantities in the different tissues were then summed to give the body burden in each fish. The total weight of the fish and the weight of the liver and gills were available from the dissection (Table S16). For skin and mucus, the estimated outer surface area of the fish was used. We note that the distinction between mucus and skin is an operational one determined by the extraction method; mucus can be viewed as a more readily extracted fraction of the test chemical residues at the fish surface. The volume of blood was taken as 0.0495 mL g^–1 fish.[30] The remaining tissue (difference between the weight of the whole fish and the weight of liver, gills, skin, and blood) was assumed to have the concentration measured in the muscle. The contribution of the different tissues to the body burden is given for each fish in Table S17, and the average contribution across all fish is plotted in Figure 1. All of the tissues, with the exception of blood, contribute at least 10% of the body burden for at least half of the test chemicals. There is no consistent negative correlation between the fraction of chemical associated with blood, muscle, and liver (tissues where the residue originates entirely from systemic uptake) and alkyl chain length (a measure of hydrophobicity). Thus, although adsorption to fish surfaces appears to play a significant role, its contribution to body burden cannot be simply predicted from surfactant hydrophobicity. In the following, we examine uptake in individual tissues.

[2] = system: rainbow trout (Oncorhynchus mykiss); assay: Surface area-normalized mucus-water and gill-water distribution coefficients; settings: in vivo
Description: For each mixture, the syringe pump was started in an aquarium containing no fish. After 16 h, to allow the concentrations to stabilize, 12 rainbow trout were added. After 7 d of exposure, the fish in the exposure aquaria as well as several unexposed (control) fish were sacrificed. Following stunning, blood was collected with a heparinized syringe from the caudal vein into a 2 mL Eppendorf tube. The fish were weighed and photographed, and the length was measured. The outer surface area of the fish was estimated from the fish weight according to O’Shea et al.[27] [drawing 1] 1
The gill surface area was estimated from the fish weight according to the equation specific for O. mykiss from a report by Hughes,[28] taken from ref ([29]) [drawing 2] 2
Because the mass of extracted mucus was not determined, the concentrations in mucus were normalized to the estimated fish’s total surface area (eq 1) excluding the head, which was not rinsed.
Surface area-normalized gill–water distribution coefficients (DG–W) were calculated from the average concentrations measured in gills and water, and a calculated gill surface based on rainbow trout specific scaling factors (eq 2). […] Unlike the skin, the gills were not rinsed with methanol, so the gill samples included gill mucus.

Salmo trutta = system: Salmo trutta; design: method as in REACH dossiers (European Chemicals Agency); settings: ref REACH dossiers (European Chemicals Agency); cited from earlier work
Danio rerio = settings: ref REACH dossiers (European Chemicals Agency); cited from earlier work
[3] = cited from earlier work
[4] = cited from earlier work; remark: listed apart in the source
[5] = system: bluegill fish (Lepomis macrochirus); settings: cited from earlier work
killifish = settings: cited from earlier work
[6] = secondary amines, no reference given

SMILES	% contribution to body burden, Gills [1] [%]	% contribution to body burden, Liver [1] [%]	% contribution to body burden, Mucus [1] [%]	% contribution to body burden, Muscle [1] [%]	% contribution to body burden, Skin [1] [%]	Gill-water distribution coefficient (DG-W) [2] [mLcm-2]	Mucus-water distribution coefficient (DMuc-W) [2] [mL cm-2]	other results
CCCCCCCCCC[N+](C)(C)C [Q10, N,N,N-trimethyl-1-decylammonium]	23	3	11	37	24	0.0064	0.0035	DG–W factor lower than tertiary amine of the same alkyl chain length [2]: 300; DMuc–W times lower than tertiary amine with the corresponding alkyl chain length [2]: 360
CCCCCCCCCCCCCC[N+](C)(C)C [Q14, N,N,N-trimethyl-1-tetradecylammonium]	70	5	10	7	8	9.5	1.40	Share of body burden present in gills and mucus [1]: at least 50%; DG–W factor lower than tertiary amine of the same alkyl chain length [2]: 18; DMuc–W higher than Q10 [2]: 2.6 log units; DMuc–W times lower than tertiary amine with the corresponding alkyl chain length [2]: 37
CCCCCCCCCCCCNC [S12, N-methyldodecylamine]	20	17	7	32	21	13.3	5.4	Share of body burden in interior tissues (blood, liver, and muscle) [1]: more than half
CCCCCCCCCCCCCCCCNC [S16, N-methylhexadecylamine]	53	12	4	16	14	300	27	Share of body burden present in gills and mucus [1]: at least 50%
CCCCCCCCCCN(C)C [T10, N,N-dimethyldecylamine]	14	18	8	38	18	1.95	1.28	Contribution of Other tissue (all apart from blood, liver, gills and skin; muscle concentration assumed) to body burden ([1]; Fish #1): 0.54; Contribution of Other tissue (all apart from blood, liver, gills and skin; muscle concentration assumed) to body burden ([1]; Fish #2): 0.33; Contribution of Other tissue (all apart from blood, liver, gills and skin; muscle concentration assumed) to body burden ([1]; Fish #3): 0.35; Contribution of Other tissue (all apart from blood, liver, gills and skin; muscle concentration assumed) to body burden ([1]; Fish #4): 0.29; Contribution of Other tissue (all apart from blood, liver, gills and skin; muscle concentration assumed) to body burden ([1]; Fish #5): 0.38; Contribution of Other tissue (all apart from blood, liver, gills and skin; muscle concentration assumed) to body burden ([1]; Fish #6): 0.37; Contribution of Other tissue (all apart from blood, liver, gills and skin; muscle concentration assumed) to body burden ([1]; Mean): 0.38; Share of body burden in interior tissues (blood, liver, and muscle) [1]: more than half; 96h-LC50 (Salmo trutta): 1.8 µg/mL; 96h-LC50 (Danio rerio): 1.13 µg/mL
CCCCCCCCCCCCCCN(C)C [T14, N,N-dimethyltetradecylamine]	34	7	11	22	24	150	51	Contribution of Other tissue (all apart from blood, liver, gills and skin; muscle concentration assumed) to body burden ([1]; Fish #1): 0.22; Contribution of Other tissue (all apart from blood, liver, gills and skin; muscle concentration assumed) to body burden ([1]; Fish #2): 0.21; Contribution of Other tissue (all apart from blood, liver, gills and skin; muscle concentration assumed) to body burden ([1]; Fish #3): 0.24; Contribution of Other tissue (all apart from blood, liver, gills and skin; muscle concentration assumed) to body burden ([1]; Fish #4): 0.21; Contribution of Other tissue (all apart from blood, liver, gills and skin; muscle concentration assumed) to body burden ([1]; Fish #5): 0.20; Contribution of Other tissue (all apart from blood, liver, gills and skin; muscle concentration assumed) to body burden ([1]; Fish #6): 0.24; Contribution of Other tissue (all apart from blood, liver, gills and skin; muscle concentration assumed) to body burden ([1]; Mean): 0.22; 96h-LC50 (Salmo trutta): 0.18 µg/mL; 96h-LC50 (Danio rerio): 0.35 µg/mL
CN(C)CCC=C1c2ccccc2CCc2ccccc21 [amitriptyline, reference compound]	–	–	–	–	–	–	–	pKa [3]: […]; log DMW [4]: 3.9
CCCCCCCCCC[N+](C)(C)CCCCCCCCCC [didecyldimethylammonium chloride]	–	–	–	–	–	–	–	bioconcentration factor (BCF) ([5]; 14C-labeled): 81 L kg^–1; 14C residues in the skin, times higher than in edible tissues [5]: 2–6
COc1ccc([C@@H]2Sc3ccccc3N(CCN(C)C)C(=O)[C@@H]2OC(C)=O)cc1 [diltiazem]	–	–	–	–	–	–	–	Vd, plasma concentration based (killifish): 0.19–0.28 L kg^–1
CNCCC(Oc1ccc(C(F)(F)F)cc1)c1ccccc1 (centres unmarked) [fluoxetine, reference compound]	–	–	–	–	–	–	–	pKa [3, 6]: > 9.5
CN[C@H]1CC[C@@H](c2ccc(Cl)c(Cl)c2)c2ccccc21 [sertraline, reference compound]	–	–	–	–	–	–	–	pKa [3, 6]: > 9.5; log DMW ([4]; membrane–water distribution coefficient): 4.3
